Active and inactive are the calls of the source. No cut-off for these calls is given here.
How the values were obtained:
[1] = test system: Hepatitis C virus; assay: Antiviral activity at Hepatitis C virus genotype 1b infected in human HuH7 cells assessed as inhibition of viral replication at 10 uM after 3 days by renilla luciferase reporter gene assay; assay type: functional, Hepacivirus hominis; details: Huh-7, 72 h
[2] = Cytotoxicity against human HuH7 cells assessed as cell viability at 10 uM after 3 days by CellTiter Glo assay; assay type: cell-based, Huh-7; details: read-out: Activity
[3] = test system: Hepatitis C virus; assay: Antiviral activity at Hepatitis C virus genotype 1b infected in human HuH7 cells assessed as inhibition of viral replication at 0.5 uM after 3 days by renilla luciferase reporter gene assay; assay type: functional, Hepacivirus hominis; details: Huh-7, 72 h
[4] = Cytotoxicity against human HuH7 cells assessed as cell viability at 0.5 uM after 3 days by CellTiter Glo assay; assay type: cell-based, Huh-7; details: read-out: Activity
[5] = test system: Hepatitis C virus; assay: Antiviral activity at Hepatitis C virus genotype 1b infected in human HuH7 cells assessed as inhibition of viral replication at 0.5 uM after 3 days by quantitative RT-PCR analysis; assay type: functional, Hepacivirus hominis; details: Huh-7, 72 h
[6] = test system: Hepatitis C virus; assay: Antiviral activity at Hepatitis C virus genotype 1b infected in human HuH7 cells assessed as inhibition of viral replication after 3 days by renilla luciferase reporter gene assay; assay type: functional, organism-based, Hepacivirus hominis; details: Huh-7, 72 h
[7] = Cytotoxicity against human HuH7 cells assessed as cell viability after 3 days by CellTiter Glo assay; assay type: cell-based, Huh-7
[8] = Therapeutic index, ratio of CC50 for human HuH7 cells to EC50 for Hepatitis C virus genotype 1b; assay type: cell-based, Huh-7; details: read-out: Ratio CC50/EC50
[9] = test system: Hepacivirus hominis; assay: Inhibition of Hepatitis C virus NS5B delta 55 assessed as [3H][…] incorporation on a poly(A) template at 10 uM after 3 hrs by scintillation proximity assay
[10] = test system: Hepacivirus hominis; assay: Inhibition of Hepatitis C virus NS5B delta 55 assessed as [3H][…] incorporation on a poly(A) template at 50 uM after 3 hrs by scintillation proximity assay
[11] = test system: Hepatitis C virus; assay: Antiviral activity at Hepatitis C virus genotype 1b infected in human HuH7 cells assessed as inhibition of viral replication at 10 uM after 3 days by quantitative RT-PCR analysis; assay type: functional, Hepacivirus hominis; details: Huh-7, 72 h
[12] = test system: Hepacivirus hominis; assay: Inhibition of Hepatitis C virus NS5B delta 55 assessed as [3H][…] incorporation on a poly(A) template at 1 uM after 3 hrs by scintillation proximity assay

Row | Compound | inhibition at 10 µM [1] [%] | viability at 72 h, 10 µM [2] [%] | also measured
1 | O=C(O)c1c[nH]c2ccc(-c3cccs3)cc2c1=O | 0 | 100 | –
2 | O=C(O)c1cn(CCO)c2ccc(-c3ccco3)cc2c1=O | 20 | 100 | –
3 | C[C@@]1(O)[C@H](O)[C@@H](CO)O[C@H]1n1cnc2c(N)ncnc21 | – | – | inhibition at 0.5 µM [3]: 98%; viability at 72 h, 0.5 µM [4]: 87%; inhibition at 0.5 µM [5]: 95%
4 | O=C(O)c1cn(CCO)c2ccc(-c3cc4ccccc4s3)cc2c1=O | 58 | 100 | EC50 [6]: 5.9 µM; CC50 at 72 h [7]: 15 µM; selectivity ratio [8]: 2.5; inhibition [9]: Active; inhibition [10]: Active
5 | O=C(O)c1c[nH]c2ccc(-c3ccco3)cc2c1=O | 0 | 100 | –
6 | O=C(O)c1cn(CCO)c2cc(-c3ccco3)ccc2c1=O | 15 | 100 | –
7 | NC(=O)c1ncn([C@@H]2O[C@H](CO)[C@@H](O)[C@H]2O)n1 [RIBAVIRIN] | 44 | 92 | –
8 | CC(=O)c1ccc(-c2ccc3c(c2)c(=O)c(C(=O)O)cn3CCO)s1 | 0 | 100 | –
9 | O=C(O)c1cn(CCO)c2ccc(I)cc2c1=O | 21 | 100 | –
10 | O=C(O)c1cnc2ccc(I)cc2c1O | 22 | 100 | –
11 | O=C(O)c1cn(CCCO)c2cc(-c3cccs3)ccc2c1=O | 12 | 97 | –
12 | O=C(O)c1cn(Cc2ccccc2)c2ccc(I)cc2c1=O | 0 | 99 | –
13 | O=C(O)c1cn(CCCO)c2ccc(-c3cc4ccccc4o3)cc2c1=O | 44 | 100 | EC50 [6]: 23 µM; CC50 at 72 h [7]: 25 µM; selectivity ratio [8]: 1.1
14 | O=C(O)c1cn(CCO)c2cc(-c3cccs3)ccc2c1=O | 14 | 100 | –
15 | O=C(O)c1cn(CCO)c2ccc(-c3cccs3)cc2c1=O | 40 | 100 | EC50 [6]: 36 µM; CC50 at 72 h [7]: > 50 µM; selectivity ratio [8]: > 1.4; inhibition [9]: Active; inhibition [10]: Active
16 | O=C(O)c1cn(CCO)c2ccc(-c3ccoc3)cc2c1=O | 0 | 100 | –
17 | O=C(O)c1cn(CCO)c2ccc(-c3cc4ccccc4o3)cc2c1=O | 63 | 100 | EC50 [6]: 5.8 µM; CC50 at 72 h [7]: 34 µM; selectivity ratio [8]: 5.9; inhibition at 10 µM [11]: 70%; inhibition [9]: inactive; inhibition [10]: inactive
18 | O=C(O)c1cn(CCO)c2cc(-c3cc4ccccc4o3)ccc2c1=O | 14 | 94 | –
19 | CCCn1cc(C(=O)O)c(=O)c2cc(-c3cc4ccccc4o3)ccc21 | 4 | 91 | –
20 | COc1ccc(-c2ccc3c(c2)c(=O)c(C(=O)O)cn3CCO)cc1 | 0 | 95 | –
21 | N#Cc1cc(COc2cccc(C(=O)/C=C(\O)C(=O)O)c2)c(Cl)cc1Cl | – | – | inhibition [12]: Active
